# Patent US7902187B2, “6-substituted 2-(benzimidazolyl)purine and purinone derivatives for immunosuppression” (Wyeth LLC, priority 2006, dated 2011)
# Biological target: T1, Jak3 (Homo sapiens, UniProt P52333)
# T1 construct: A fragment encoding the catalytic domain of Jak3 (508aa to 1124aa) was ligated with GST at 5′ end; made in house; host or cells: Sf9 insect cells (baculovirus, pFastBac 1)
# T1 sequence (P52333 508-1124): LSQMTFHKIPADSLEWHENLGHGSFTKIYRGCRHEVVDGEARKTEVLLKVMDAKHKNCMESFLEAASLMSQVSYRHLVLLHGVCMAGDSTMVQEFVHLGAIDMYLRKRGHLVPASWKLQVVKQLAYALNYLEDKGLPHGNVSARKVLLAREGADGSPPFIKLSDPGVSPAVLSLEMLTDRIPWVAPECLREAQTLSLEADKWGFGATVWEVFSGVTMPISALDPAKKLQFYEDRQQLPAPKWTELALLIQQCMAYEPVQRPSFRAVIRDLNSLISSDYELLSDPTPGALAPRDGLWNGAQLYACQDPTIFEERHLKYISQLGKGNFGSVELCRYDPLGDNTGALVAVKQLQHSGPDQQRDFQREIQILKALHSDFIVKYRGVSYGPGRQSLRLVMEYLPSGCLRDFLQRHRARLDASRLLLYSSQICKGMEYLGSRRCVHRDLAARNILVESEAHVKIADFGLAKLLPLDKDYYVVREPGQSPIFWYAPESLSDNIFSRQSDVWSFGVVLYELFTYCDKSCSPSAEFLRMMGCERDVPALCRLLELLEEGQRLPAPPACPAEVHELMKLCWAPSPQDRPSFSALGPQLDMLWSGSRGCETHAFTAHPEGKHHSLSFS
# Assay: Jak3 Kinase Assay (HTRF)
# Type: biochemical
# Settings: GST-Jak3 catalytic domain, 1 μM ATP, 60-min incubation; read-out: Jak3 Kinase, IC50 representation
# Procedure: Human Jak3 cDNA was amplified by PCR. A fragment encoding the catalytic domain of Jak3 (508aa to 1124aa) was ligated with GST at 5′ end. This fused GST-Jak3 DNA fragment was cloned into the EcoRI site of the donor plasmid pFastBac 1 (Life Technologies #10359-016). The transformation, transposition, and transfection of insect cells (Sf9) were performed according to the manufacture's instructions. The cell lysate containing recombinant GST-Jak3 was used in the kinase assay. Anti-GST antibody (10 μg/ml, Sigma #G1417) was coated onto a 384-well plate at 4° C. overnight. Cell lysate containing GST-Jak3 (1:100 dilution) was added to the anti-GST coated plates, and GST-Jak3 was captured by immobilized anti-GST antibody. Testing compounds and substrate mix (50 mM HEPES, pH 7, 0.5 mM Na3VO4, 25 mM MgCl2, 1 mM DTT, 0.005% BSA, 1 μM ATP, and 4.5 μg/ml biotinyl poly-Glu,Ala,Tyr) were added to the plate to initiate the reaction. After a 60-min incubation, the reaction was stopped by 4 mM EDTA, and phosphorylation of biotinyl poly-Glu,Ala,Tyr was detected using 17 μg/ml Cy5-streptavidin (Amersham, #PA92005) and 2.7 μg/ml Europium-conjugated anti-phosphotyrosine antibody (PerkinElmer #AD0069) using homogeneous time-resolved fluorescence (HTRF) technology.
row,Compound,IC50
1,O=c1[nH]c2c(-c3cccnc3)nc(-n3cnc4ccc(F)cc43)nc2n1C1CCOCC1,< 100 nM
2,O=c1[nH]c2c(N3CC(O)C3)nc(-n3cnc4ccc(Cl)cc43)nc2n1C1CCOCC1,< 100 nM
3,N#Cc1ccc2ncn(-c3nc(N4CC(F)(F)C4)c4[nH]c(=O)n(CC5CCOC5)c4n3)c2c1 (stereo not drawn),< 100 nM
4,O=c1[nH]c2c(N3CCC(F)(F)C3)nc(-n3cnc4ccc(F)cc43)nc2n1C1CCOCC1,< 100 nM
5,O=c1[nH]c2c(Oc3cccnc3)nc(-n3cnc4ccc(F)cc43)nc2n1C1CCOCC1,< 100 nM
6,N#Cc1ccc2ncn(-c3nc(N4CC(F)(F)C4)c4[nH]c(=O)n(C5CCOCC5)c4n3)c2c1,< 100 nM
7,O=c1[nH]c2c(N3CCC(F)(F)CC3)nc(-n3cnc4ccc(F)cc43)nc2n1C1CCOCC1,< 100 nM
8,Cn1c(=O)n(C2CCOCC2)c2nc(-n3cnc4ccc(Cl)cc43)nc(NCC(F)(F)CCl)c21,< 100 nM
9,Cn1c(=O)n([C@H]2CC[C@H](O)CC2)c2nc(-n3cnc4ccc(Cl)cc43)nc(N3CC[C@H](F)C3)c21,< 100 nM
10,O=c1[nH]c2c(NCCCO)nc(-n3cnc4ccc(Cl)cc43)nc2n1C1CCOCC1,< 100 nM
11,CN1CCCN(c2nc(-n3cnc4ccc(F)cc43)nc3c2[nH]c(=O)n3C2CCOCC2)CC1,< 100 nM
12,O=c1[nH]c2c(-c3ccccc3Cl)nc(-n3cnc4ccc(F)cc43)nc2n1C1CCOCC1,> 1000 nM
13,CC(C)(C)OC(=O)N1CC(CNc2nc(-n3cnc4ccc(F)cc43)nc3c2[nH]c(=O)n3C2CCOCC2)C1,< 100 nM
14,COc1ccc(-c2nc(-n3cnc4ccc(F)cc43)nc3c2[nH]c(=O)n3C2CCOCC2)cc1,< 100 nM
15,COCCCCn1c(=O)[nH]c2c(N3CC(F)(F)C3)nc(-n3cnc4ccc(C#N)cc43)nc21,< 100 nM
16,CC(C)CNc1nc(-n2cnc3ccc(F)cc32)nc2c1[nH]c(=O)n2[C@@H]1CCOc2c(F)cccc21,100 to 1000 nM
17,N#Cc1ccc2ncn(-c3nc(NCC4CC4)c4[nH]c(=O)n(C5CCOCC5)c4n3)c2c1,< 100 nM
18,N#Cc1ccc2ncn(-c3nc(N4CCC4)c4[nH]c(=O)n(C5CCOCC5)c4n3)c2c1,< 100 nM
19,O=c1[nH]c2c(NCC3CNC3)nc(-n3cnc4ccc(F)cc43)nc2n1C1CCOCC1,< 100 nM
20,O=c1[nH]c2c(N3CCC(F)CC3)nc(-n3cnc4ccc(F)cc43)nc2n1C1CCOCC1,< 100 nM
21,O=c1[nH]c2c(N3CCCC3)nc(-n3cnc4ccc(F)cc43)nc2n1C1CCOCC1,< 100 nM
22,N#Cc1ccc2ncn(-c3nc(N4CC(O)C4)c4[nH]c(=O)n(C5CCOCC5)c4n3)c2c1,< 100 nM
23,O=c1[nH]c2c(N3CCC3)nc(-n3cnc4ccc(F)cc43)nc2n1[C@@H]1CCOc2c(F)cccc21,< 100 nM

row,Compound,IC50
1,N#Cc1ccc(-c2nc(-n3cnc4ccc(F)cc43)nc3c2[nH]c(=O)n3C2CCOCC2)cc1,< 100 nM
2,O=c1[nH]c2c(-c3ccccc3)nc(-n3cnc4ccccc43)nc2n1[C@@H]1CCOc2ccc(F)cc21,100 to 1000 nM
3,O=c1[nH]c2c(OC3CCC3)nc(-n3cnc4ccc(F)cc43)nc2n1C1CCOCC1,< 100 nM
4,O=c1[nH]c2c(N3CC(F)(F)C3)nc(-n3cnc4ccc(F)cc43)nc2n1[C@H]1CC[C@H](O)CC1,< 100 nM
5,Cn1c(=O)n([C@H]2CC[C@H](O)CC2)c2nc(-n3cnc4ccc(F)cc43)nc(N3CCC(F)(F)CC3)c21,< 100 nM
6,O=c1[nH]c2c(N3CCC(O)C3)nc(-n3cnc4ccc(F)cc43)nc2n1C1CCOCC1 (stereo not drawn),< 100 nM
7,O=c1[nH]c2c(NC3CNC3)nc(-n3cnc4ccc(F)cc43)nc2n1C1CCOCC1,< 100 nM
8,CC(C)(C)OC(=O)N1CC(Nc2nc(-n3cnc4ccc(Cl)cc43)nc3c2[nH]c(=O)n3C2CCOCC2)C1,< 100 nM
9,N#Cc1ccc2ncn(-c3nc(NCCCN4CCCCC4)c4[nH]c(=O)n(C5CCOCC5)c4n3)c2c1,< 100 nM
10,O=c1[nH]c2c(-c3ccc(Cl)cc3)nc(-n3cnc4ccc(F)cc43)nc2n1[C@@H]1CCOc2c(F)cccc21,100 to 1000 nM
11,Cc1ncccc1Cn1c(=O)[nH]c2c(N3CC(F)(F)C3)nc(-n3cnc4ccc(C#N)cc43)nc21,< 100 nM
12,O=c1[nH]c2c(-c3ccccc3)nc(-n3cnc4ccc(F)cc43)nc2n1[C@@H]1CCOc2c(F)cccc21,100 to 1000 nM
13,Cn1c(=O)n([C@H]2CC[C@H](O)CC2)c2nc(-n3cnc4ccc(F)cc43)nc(N3CCC(F)CC3)c21,< 100 nM
14,O=c1[nH]c2c(OC3CCOC3)nc(-n3cnc4ccc(F)cc43)nc2n1C1CCOCC1 (stereo not drawn),100 to 1000 nM
15,N#Cc1ccc2ncn(-c3nc(N4CCS(=O)(=O)CC4)c4[nH]c(=O)n(C5CCOCC5)c4n3)c2c1,< 100 nM
16,CC(c1cccnc1)n1c(=O)[nH]c2c(N3CC(F)(F)C3)nc(-n3cnc4ccc(C#N)cc43)nc21 (stereo not drawn),< 100 nM
17,N#Cc1ccc2ncn(-c3nc(N4CC(C(=O)O)C4)c4[nH]c(=O)n(C5CCOCC5)c4n3)c2c1,< 100 nM
18,O=c1[nH]c2c(CO)nc(-n3cnc4ccc(F)cc43)nc2n1C1CCOCC1,100 to 1000 nM
19,Cn1c(=O)n([C@H]2CC[C@H](O)CC2)c2nc(-n3cnc4ccc(F)cc43)nc(N3CC(F)(F)C3)c21,< 100 nM
20,O=c1[nH]c2c(N3CC[C@@H](F)C3)nc(-n3cnc4ccc(F)cc43)nc2n1C1CCOCC1,< 100 nM
21,O=c1[nH]c2c(-c3ccncc3)nc(-n3cnc4ccc(F)cc43)nc2n1C1CCOCC1,< 100 nM
22,O=C(O)c1nc(-n2cnc3ccc(F)cc32)nc2c1[nH]c(=O)n2C1CCOc2ccccc21 (stereo not drawn),< 100 nM
23,O=c1[nH]c2c(-c3ccncc3)nc(-n3cnc4ccc(OC(F)(F)F)cc43)nc2n1C1CCOCC1,100 to 1000 nM

row,Compound,IC50
1,O=c1[nH]c2c(-c3ccccc3)nc(-n3cnc4ccc(F)cc43)nc2n1C1CCOCC1,< 100 nM
2,O=c1[nH]c2c(-c3ccccc3)nc(-n3cnc4ccccc43)nc2n1C1CCOCC1,100 to 1000 nM
3,O=c1[nH]c2c(NCc3ccccc3)nc(-n3cnc4ccc(F)cc43)nc2n1C1CCOCC1,100 to 1000 nM
4,N#CCNC(=O)c1nc(-n2cnc3ccc(F)cc32)nc2c1[nH]c(=O)n2C1CCOCC1,< 100 nM
5,CC(C)Cc1nc(-n2cnc3ccc(F)cc32)nc2c1[nH]c(=O)n2[C@@H]1CCOc2c(F)cccc21,100 to 1000 nM
6,N#Cc1ccc2ncn(-c3nc(N4CCOCC4)c4[nH]c(=O)n(C5CCOCC5)c4n3)c2c1,< 100 nM
7,O=C(c1nc(-n2cnc3ccc(F)cc32)nc2c1[nH]c(=O)n2C1CCOc2ccccc21)N1CCCCC1 (stereo not drawn),< 100 nM
8,N#Cc1ccc2ncn(-c3nc(NC4CCCC4)c4[nH]c(=O)n(C5CCOCC5)c4n3)c2c1,< 100 nM
9,C[C@@H](Nc1nc(-n2cnc3ccc(F)cc32)nc2c1[nH]c(=O)n2C1CCOCC1)c1ccccc1,> 1000 nM
10,O=c1[nH]c2c(N3CC(F)(F)C(F)(F)C3)nc(-n3cnc4ccc(F)cc43)nc2n1C1CCOCC1,< 100 nM
11,O=c1[nH]c2c(Cl)nc(-n3cnc4ccc(F)cc43)nc2n1[C@@H]1CCOc2c(F)cccc21,< 100 nM
12,Cn1c(=O)n([C@H]2CC[C@H](O)CC2)c2nc(-n3cnc4ccc(Cl)cc43)nc(N3CCC(F)CC3)c21,< 100 nM
13,CC(C)(C)NS(=O)(=O)c1cccc(-c2nc(-n3cnc4ccc(F)cc43)nc3c2[nH]c(=O)n3C2CCOCC2)c1,< 100 nM
14,O=c1[nH]c2c(N3CC(O)C3)nc(-n3cnc4ccc(F)cc43)nc2n1[C@@H]1CCOc2c(F)cccc21,< 100 nM
15,O=c1[nH]c2c(-c3ccc(F)nc3)nc(-n3cnc4ccc(F)cc43)nc2n1C1CCOCC1,< 100 nM
16,O=c1[nH]c2c(-c3cccc4cnccc34)nc(-n3cnc4ccc(F)cc43)nc2n1C1CCOCC1,100 to 1000 nM
17,O=c1[nH]c2c(-c3ccc(Cl)cc3)nc(-n3cnc4ccc(F)cc43)nc2n1C1CCOCC1,100 to 1000 nM
18,O=c1[nH]c2c(NC3CCC3)nc(-n3cnc4ccc(F)cc43)nc2n1C1CCOCC1,< 100 nM
19,CN(C)C(=O)CNc1nc(-n2cnc3ccc(F)cc32)nc2c1[nH]c(=O)n2C1CCOCC1,< 100 nM
20,O=c1[nH]c2c(Cc3ccccc3)nc(-n3cnc4ccc(F)cc43)nc2n1[C@@H]1CCOc2c(F)cccc21,100 to 1000 nM
21,CO[C@H]1CC[C@H](n2c(=O)[nH]c3c(Cl)nc(-n4cnc5ccc(C#N)cc54)nc32)CC1,100 to 1000 nM
22,N#Cc1ccc2ncn(-c3nc(NCCCN)c4[nH]c(=O)n(C5CCOCC5)c4n3)c2c1,< 100 nM
23,COCCNc1nc(-n2cnc3ccc(Cl)cc32)nc2c1[nH]c(=O)n2C1CCOCC1,< 100 nM
